This assay relates to mammalian tissues. As to the kind of experiment: pharmacological screening of purified compounds in mammalian tissues. As to conditions: result in words. The source says: The invention further relates to methods of screening pharmacological activities of the said compounds in mammalian tissues.
vii) testing the pure compounds by using methods of pharmacology, and
Pharmacological Testing of Pure Compounds

As to `C=C(C)[C@@H]1CC[C@]2(CO)CC[C@]3(C)[C@H](CC[C@@H]4[C@@]5(C)CC[C@H](O)C(C)(C)[C@@H]5CC[C@]43C)[C@@H]12` [Betulin], the “biological activity shown by the extract” value is recorded as “maintained”.
The entry for `CCCCCCCCCCCCCCCC(=O)OC` [Methyl palmitate] is “maintained”.

Values taken from patent US6428823B1, “Biologically active aqueous fraction of an extract obtained from a mangrove plant Salvadora persica L” (Council of Scientific & Industrial Research, priority 2001, dated 2002).
